From patent US9708314B2, “Heterocyclic amide compound” (NISSAN CHEMICAL INDUSTRIES, LTD., priority 2013, dated 2017)

Key:
Type in all cases: in vivo
[1] = tested on: Echinochloa oryzacola Vasing.; experiment: Test Example 1: herbicidal activity, application before weed generation in submerged conditions; settings: Application herbicide amount 320 g/ha; Seventeenth Table
Summary of the method: (§1)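 Alluvial soil in Wagner pots flooded to 4 cm water depth; weed seeds sown and 2.5 leaf stage rice seedlings transplanted. Emulsion diluted in water applied to water surface on sowing day at stated g/ha. Greenhouse 25° C. to 30° C.; effects scored 0–5 by herbicidal ratio after three weeks.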

Monochoria vaginalis [2] = experiment: as above; settings: Application herbicide amount 320 g/ha; Seventeenth Table
Summary of the method: as §1

Scirpus juncoides [3] = experiment: as above; settings: Application herbicide amount 320 g/ha; Seventeenth Table
Summary of the method: as §1

[4] = tested on: transplanted Oryza sativa; experiment: Test Example 1: effect on crop, application before weed generation in submerged conditions; settings: Application herbicide amount 320 g/ha; Seventeenth Table
Summary of the method: as §1

[5] = tested on: Echinochloa oryzacola Vasing.; experiment: Test Example 2: herbicidal activity, application during weed generation in submerged conditions; settings: Eighteenth Table; application herbicide amount 320 g/ha
Summary of the method: (§2)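 Alluvial soil in Wagner pots flooded to 4 cm water depth; seeds sown mixed, grown in greenhouse at 25–30 °C. At one- to two-leaf stage, emulsion diluted with water to the set rate (g/ha) was applied to the water surface. Effect scored 0–5 by herbicidal ratio three weeks later.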

Monochoria vaginalis [6] = experiment: as above; settings: Eighteenth Table; application herbicide amount 320 g/ha
Summary of the method: as §2

Scirpus juncoides [7] = experiment: as above; settings: Eighteenth Table; application herbicide amount 320 g/ha
Summary of the method: as §2

| SMILES | A: Echinochloa oryzicola Vasing. (herbicidal effect grade) [1] | C: Monochoria vaginalis (herbicidal effect grade) (Monochoria vaginalis [2]) | B: Scirpus juncoides (herbicidal effect grade) (Scirpus juncoides [3]) | a: transplanted Oryza sativa (effect on crop grade) [4] | A (Echinochloa oryzicola Vasing.) herbicidal ratio grade [5] | C (Monochoria vaginalis) herbicidal ratio grade (Monochoria vaginalis [6]) | B (Scirpus juncoides) herbicidal ratio grade (Scirpus juncoides [7]) |
| --- | --- | --- | --- | --- | --- | --- | --- |
| Cc1nnc(NC(=O)c2ccc(C(F)(F)F)n3c(N(C)C(C)C)nnc23)o1 [1-132] | 5 (Herbicidal ratio of 90% or more (almost completely withered)) | 4 (Herbicidal ratio of 70% or more and less than 90%) | 4 (Herbicidal ratio of 70% or more and less than 90%) | 2 (Herbicidal ratio of 20% or more and less than 40%) | 4 (Herbicidal ratio of 70% or more and less than 90%) | 4 (Herbicidal ratio of 70% or more and less than 90%) | 4 (Herbicidal ratio of 70% or more and less than 90%) |
| Cc1nnc(NC(=O)c2ccc(C(F)(F)F)n3c(N(C)C4CCCCC4)nnc23)o1 [1-133] | 5 (Herbicidal ratio of 90% or more (almost completely withered)) | 4 (Herbicidal ratio of 70% or more and less than 90%) | 3 (Herbicidal ratio of 40% or more and less than 70%) | 0 (Herbicidal ratio of 5% or less (almost no effect)) | 2 (Herbicidal ratio of 20% or more and less than 40%) | 3 (Herbicidal ratio of 40% or more and less than 70%) | 2 (Herbicidal ratio of 20% or more and less than 40%) |
| CCN(C)c1nnc2c(C(=O)Nc3nnc(C)o3)ccc(C(F)(F)F)n12 [1-134] | 3 (Herbicidal ratio of 40% or more and less than 70%) | 2 (Herbicidal ratio of 20% or more and less than 40%) | 3 (Herbicidal ratio of 40% or more and less than 70%) | 0 (Herbicidal ratio of 5% or less (almost no effect)) | 1 (Herbicidal ratio of 5% or more and less than 20%) | 3 (Herbicidal ratio of 40% or more and less than 70%) | 3 (Herbicidal ratio of 40% or more and less than 70%) |
| CCN(CC)c1nnc2c(C(=O)Nc3nnc(C)o3)ccc(C(F)(F)F)n12 [1-135] | 3 (Herbicidal ratio of 40% or more and less than 70%) | 4 (Herbicidal ratio of 70% or more and less than 90%) | 4 (Herbicidal ratio of 70% or more and less than 90%) | 1 (Herbicidal ratio of 5% or more and less than 20%) | 2 (Herbicidal ratio of 20% or more and less than 40%) | 3 (Herbicidal ratio of 40% or more and less than 70%) | 2 (Herbicidal ratio of 20% or more and less than 40%) |
| Cc1nnc(NC(=O)c2ccc(C(F)(F)F)n3c(N4CCCC4)nnc23)o1 [1-136] | 5 (Herbicidal ratio of 90% or more (almost completely withered)) | 3 (Herbicidal ratio of 40% or more and less than 70%) | 3 (Herbicidal ratio of 40% or more and less than 70%) | 1 (Herbicidal ratio of 5% or more and less than 20%) | 0 (Herbicidal ratio of 5% or less (almost no effect)) | 2 (Herbicidal ratio of 20% or more and less than 40%) | 2 (Herbicidal ratio of 20% or more and less than 40%) |
| CCN(C)c1nnc2c(C(=O)Nc3nnco3)ccc(C(F)(F)F)n12 [1-137] | 5 (Herbicidal ratio of 90% or more (almost completely withered)) | 5 (Herbicidal ratio of 90% or more (almost completely withered)) | 5 (Herbicidal ratio of 90% or more (almost completely withered)) | 3 (Herbicidal ratio of 40% or more and less than 70%) | 3 (Herbicidal ratio of 40% or more and less than 70%) | 3 (Herbicidal ratio of 40% or more and less than 70%) | 3 (Herbicidal ratio of 40% or more and less than 70%) |
| CCN(CC)c1nnc2c(C(=O)Nc3nnco3)ccc(C(F)(F)F)n12 [1-138] | 5 (Herbicidal ratio of 90% or more (almost completely withered)) | 4 (Herbicidal ratio of 70% or more and less than 90%) | 5 (Herbicidal ratio of 90% or more (almost completely withered)) | 2 (Herbicidal ratio of 20% or more and less than 40%) | 3 (Herbicidal ratio of 40% or more and less than 70%) | 3 (Herbicidal ratio of 40% or more and less than 70%) | 3 (Herbicidal ratio of 40% or more and less than 70%) |
| O=C(Nc1nnco1)c1ccc(C(F)(F)F)n2c(N3CCCC3)nnc12 [1-139] | 5 (Herbicidal ratio of 90% or more (almost completely withered)) | 3 (Herbicidal ratio of 40% or more and less than 70%) | 4 (Herbicidal ratio of 70% or more and less than 90%) | 2 (Herbicidal ratio of 20% or more and less than 40%) | 4 (Herbicidal ratio of 70% or more and less than 90%) | 3 (Herbicidal ratio of 40% or more and less than 70%) | 3 (Herbicidal ratio of 40% or more and less than 70%) |
| O=C(Nc1nnco1)c1ccc(C(F)(F)F)n2c(C3CC3)nnc12 [1-144] | 5 (Herbicidal ratio of 90% or more (almost completely withered)) | 3 (Herbicidal ratio of 40% or more and less than 70%) | 3 (Herbicidal ratio of 40% or more and less than 70%) | 1 (Herbicidal ratio of 5% or more and less than 20%) | 4 (Herbicidal ratio of 70% or more and less than 90%) | 3 (Herbicidal ratio of 40% or more and less than 70%) | 4 (Herbicidal ratio of 70% or more and less than 90%) |
| CCC(CC)c1nnc2c(C(=O)Nc3nnco3)ccc(C(F)(F)F)n12 [1-145] | 5 (Herbicidal ratio of 90% or more (almost completely withered)) | 5 (Herbicidal ratio of 90% or more (almost completely withered)) | 5 (Herbicidal ratio of 90% or more (almost completely withered)) | 4 (Herbicidal ratio of 70% or more and less than 90%) | 4 (Herbicidal ratio of 70% or more and less than 90%) | 4 (Herbicidal ratio of 70% or more and less than 90%) | 4 (Herbicidal ratio of 70% or more and less than 90%) |
| CSCc1nnc2c(C(=O)Nc3nnco3)ccc(C(F)(F)F)n12 [1-146] | 5 (Herbicidal ratio of 90% or more (almost completely withered)) | 5 (Herbicidal ratio of 90% or more (almost completely withered)) | 5 (Herbicidal ratio of 90% or more (almost completely withered)) | 3 (Herbicidal ratio of 40% or more and less than 70%) | 3 (Herbicidal ratio of 40% or more and less than 70%) | 3 (Herbicidal ratio of 40% or more and less than 70%) | 3 (Herbicidal ratio of 40% or more and less than 70%) |
| O=C(Nc1nnco1)c1ccc(C(F)(F)F)n2c(-c3ccc(F)cc3)nnc12 [1-147] | 5 (Herbicidal ratio of 90% or more (almost completely withered)) | 5 (Herbicidal ratio of 90% or more (almost completely withered)) | 5 (Herbicidal ratio of 90% or more (almost completely withered)) | 2 (Herbicidal ratio of 20% or more and less than 40%) | 4 (Herbicidal ratio of 70% or more and less than 90%) | 3 (Herbicidal ratio of 40% or more and less than 70%) | 2 (Herbicidal ratio of 20% or more and less than 40%) |
| COc1cc(OC)cc(-c2nnc3c(C(=O)Nc4nnco4)ccc(C(F)(F)F)n23)c1 [1-148] | 5 (Herbicidal ratio of 90% or more (almost completely withered)) | 5 (Herbicidal ratio of 90% or more (almost completely withered)) | 5 (Herbicidal ratio of 90% or more (almost completely withered)) | 4 (Herbicidal ratio of 70% or more and less than 90%) | 5 (Herbicidal ratio of 90% or more (almost completely withered)) | 4 (Herbicidal ratio of 70% or more and less than 90%) | 5 (Herbicidal ratio of 90% or more (almost completely withered)) |
